In ChEMBL document CHEMBL5154882, “Discovery of 4-Hydroxyquinazoline Derivatives as Small Molecular BET/PARP1 Inhibitors That Induce Defective Homologous Recombination and Lead to Synthetic Lethality for Triple-Negative Breast Cancer Therapy” (J Med Chem, 2022):
Active and inactive are the calls of the source.

What was measured:
MDA-MB-468 [1] = test: Cell cycle arrest in human MDA-MB-468 cells assessed as accumulation at S phase at 10 uM incubated for 72 hrs by propidium iodide staining-based flow cytometry analysis (reference value: 21.1%); assay type: functional
[2] = Toxicity in BALB/c nude mouse xenografted with human MDA-MB-468 cells assessed as morphological changes in heart at 40 to 80 mg/kg, ig administered daily for 16 days measured every 3 days by hematoxyin-eosin staining based analysis; assay type: organism-based; conditions: in vivo, po, 384 h, dose 40-80 mg/kg, time 16 day
MDA-MB-468 [3] = test: Induction of apoptosis in human MDA-MB-468 cells assessed as late apoptotic cells at 20 uM incubated for 72 hrs by annexin V/propidium iodide staining-based flow cytometry analysis (reference value: 1.34%); assay type: functional
MDA-MB-468 [4] = test: Induction of apoptosis in human MDA-MB-468 cells assessed as up-regulation of Bax protein level at 20 uM incubated for 72 hrs by Western blot analysis; assay type: functional, cell-based
[5] = Toxicity in BALB/c nude mouse xenografted with human MDA-MB-468 cells assessed as morphological changes in spleen at 40 to 80 mg/kg, ig administered daily for 16 days measured every 3 days by hematoxyin-eosin staining based analysis; assay type: organism-based; conditions: in vivo, po, 384 h, dose 40-80 mg/kg, time 16 day
MDA-MB-231 [6] = test: Antitumor activity against human MDA-MB-231 cells xenografted in BALB/c nude mouse assessed as tumor growth inhibition at 40 to 80 mg/kg incubated for 30 to 40 mins by Ki-67 staining based immunohistochemical analysis; assay type: functional, organism-based; conditions: dose 40-80 mg/kg, time 30-40 min
MDA-MB-231 [7] = test: Antitumor activity against human MDA-MB-231 cells xenografted in BALB/c nude mouse assessed as reduction in CtIp expression at 40 to 80 mg/kg incubated for 30 to 40 mins by immunohistochemical analysis; assay type: functional, organism-based; conditions: dose 40-80 mg/kg, time 30-40 min
[8] = target: T1, Bromodomain-containing protein 4 (Homo sapiens, UniProt O60885); test: Inhibition of BRD4 BD2 (unknown origin)
MDA-MB-231 [9] = test: Antitumor activity against human MDA-MB-231 cells xenografted in BALB/c nude mouse assessed as reduction in PAR expression at 40 to 80 mg/kg incubated for 30 to 40 mins by immunohistochemical analysis; assay type: functional, organism-based; conditions: dose 40-80 mg/kg, time 30-40 min
[10] = Toxicity in BALB/c nude mouse xenografted with human MDA-MB-468 cells assessed as morphological changes in kidney at 40 to 80 mg/kg, ig administered daily for 16 days measured every 3 days by hematoxyin-eosin staining based analysis; assay type: organism-based; conditions: in vivo, po, 384 h, dose 40-80 mg/kg, time 16 day
MDA-MB-231 [11] = test: Induction of DNA damage in human MDA-MB-231 cells assessed as increase in tail DNA measured at 5 to 20 uM after 3 days by comet assay; assay type: functional, cell-based; conditions: dose 5-20 µM, time 3.0 day
MDA-MB-468 [12] = test: Downregulation of PAR expression level in human MDA-MB-468 cells by Western blot analysis; assay type: functional, cell-based; conditions: dose 5-20 µM, DDE = dose-dependent effect
[13] = Toxicity in BALB/c nude mouse xenografted with human MDA-MB-468 cells assessed as death at 80 mg/kg, ig administered daily for 16 days measured every 3 days; assay type: organism-based; conditions: in vivo, po, 384 h, time 16 day
MDA-MB-231 [14] = test: Antiproliferative activity against human MDA-MB-231 cells assessed as reduction in cell viability incubated for 72 hrs by MTT assay; assay type: functional, cell-based; conditions: MDA-MB-231, 72 h
MDA-MB-468 [15] = test: Induction of apoptosis in human MDA-MB-468 cells assessed as late apoptotic cells at 10 uM incubated for 72 hrs by annexin V/propidium iodide staining-based flow cytometry analysis (reference value: 1.34%); assay type: functional
MDA-MB-231 [16] = test: Antitumor activity against human MDA-MB-231 cells xenografted in BALB/c nude mouse assessed as downregulation of BRD4 downstream protein at 40 mg/kg by Western blot analysis; assay type: functional, organism-based
MDA-MB-468 [17] = test: Downregulation of c-Myc expression level in human MDA-MB-468 cells by Western blot analysis; assay type: functional, cell-based; conditions: dose 5-20 µM, DDE = dose-dependent effect
MDA-MB-468 [18] = test: Downregulation of BRD4 expression level in human MDA-MB-468 cells by Western blot analysis; assay type: functional, cell-based; conditions: dose 5-20 µM, DDE = dose-dependent effect
[19] = AUC (0 to infinity) in Sprague-Dawley rat at 1 mg/kg, iv; assay type: ADME, organism-based; design: time infinity, dose 1 mg/kg, route iv; conditions: in vivo
MDA-MB-231 [20] = test: Antitumor activity against human MDA-MB-231 cells xenografted in BALB/c nude mouse assessed as downregulation of PAR at 80 mg/kg by Western blot analysis; assay type: functional, organism-based
MDA-MB-231 [21] = test: Antitumor activity against human MDA-MB-231 cells xenografted in BALB/c nude mouse assessed as downregulation of CtIP at 80 mg/kg by Western blot analysis; assay type: functional, organism-based
[22] = target: Poly [ADP-ribose] polymerase 1 (Homo sapiens, UniProt P09874); test: Binding affinity to PARP1 in human MDA-MB-468 cells assessed as increase in thermal stability at 5 uM by cellular thermal shift assay; assay type: cell-based
MDA-MB-468 [23] = test: Inhibition of homologous recombinant repair in human MDA-MB-468 cells assessed as down-regulation of Rad51 expression at 5 to 20 uM by Western blot analysis; assay type: functional, cell-based; conditions: dose 5-20 µM, DDE = dose-dependent effect
MDA-MB-468 [24] = test: Inhibition of homologous recombinant repair in human MDA-MB-468 cells assessed as down-regulation of CtlP expression at 5 to 20 uM in by Western blot analysis; assay type: functional, cell-based; conditions: dose 5-20 µM
[25] = Toxicity in BALB/c nude mouse xenografted with human MDA-MB-468 cells assessed as change in body weight at 80 mg/kg, ig administered daily for 16 days measured every 3 days; assay type: organism-based; conditions: in vivo, po, 384 h, time 16 day
[26] = Toxicity in BALB/c nude mouse xenografted with human MDA-MB-468 cells assessed as morphological changes in spleen at 80 mg/kg, ig administered daily for 16 days measured every 3 days by hematoxyin-eosin staining based analysis; assay type: organism-based; conditions: in vivo, po, 384 h, time 16 day
[27] = Toxicity in BALB/c nude mouse xenografted with human MDA-MB-468 cells assessed as morphological changes in liver at 40 to 80 mg/kg, ig administered daily for 16 days measured every 3 days by hematoxyin-eosin staining based analysis; assay type: organism-based; conditions: in vivo, po, 384 h, dose 40-80 mg/kg, time 16 day
[28] = Toxicity in BALB/c nude mouse xenografted with human MDA-MB-468 cells assessed as morphological changes in lung at 80 mg/kg, ig administered daily for 16 days measured every 3 days by hematoxyin-eosin staining based analysis; assay type: organism-based; conditions: in vivo, po, 384 h, time 16 day
MDA-MB-231 [29] = test: Antitumor activity against human MDA-MB-231 cells xenografted in BALB/c nude mouse assessed as reduction in c-Myc expression at 40 to 80 mg/kg incubated for 30 to 40 mins by immunohistochemical analysis; assay type: functional, organism-based; conditions: dose 40-80 mg/kg, time 30-40 min
MDA-MB-468 [30] = test: Cell cycle arrest in human MDA-MB-468 cells assessed as accumulation at G0/G1 phase at 10 uM incubated for 72 hrs by propidium iodide staining-based flow cytometry analysis (reference value: 61.4%); assay type: functional
[31] = Toxicity in BALB/c nude mouse xenografted with human MDA-MB-468 cells assessed as morphological changes in liver at 80 mg/kg, ig administered daily for 16 days measured every 3 days by hematoxyin-eosin staining based analysis; assay type: organism-based; conditions: in vivo, po, 384 h, time 16 day
[32] = target: T1, Bromodomain-containing protein 4; test: Inhibition of BRD4 (unknown origin)
MDA-MB-468 [33] = test: Inhibition of clone formation in human MDA-MB-468 cells measured after 10 days by crystal violet staining based analysis; assay type: functional, cell-based; conditions: dose 5-20 µM, time 10.0 day, DDE = dose-dependent effect

Chain of Poly [ADP-ribose] polymerase 1 (P09874 whole entry): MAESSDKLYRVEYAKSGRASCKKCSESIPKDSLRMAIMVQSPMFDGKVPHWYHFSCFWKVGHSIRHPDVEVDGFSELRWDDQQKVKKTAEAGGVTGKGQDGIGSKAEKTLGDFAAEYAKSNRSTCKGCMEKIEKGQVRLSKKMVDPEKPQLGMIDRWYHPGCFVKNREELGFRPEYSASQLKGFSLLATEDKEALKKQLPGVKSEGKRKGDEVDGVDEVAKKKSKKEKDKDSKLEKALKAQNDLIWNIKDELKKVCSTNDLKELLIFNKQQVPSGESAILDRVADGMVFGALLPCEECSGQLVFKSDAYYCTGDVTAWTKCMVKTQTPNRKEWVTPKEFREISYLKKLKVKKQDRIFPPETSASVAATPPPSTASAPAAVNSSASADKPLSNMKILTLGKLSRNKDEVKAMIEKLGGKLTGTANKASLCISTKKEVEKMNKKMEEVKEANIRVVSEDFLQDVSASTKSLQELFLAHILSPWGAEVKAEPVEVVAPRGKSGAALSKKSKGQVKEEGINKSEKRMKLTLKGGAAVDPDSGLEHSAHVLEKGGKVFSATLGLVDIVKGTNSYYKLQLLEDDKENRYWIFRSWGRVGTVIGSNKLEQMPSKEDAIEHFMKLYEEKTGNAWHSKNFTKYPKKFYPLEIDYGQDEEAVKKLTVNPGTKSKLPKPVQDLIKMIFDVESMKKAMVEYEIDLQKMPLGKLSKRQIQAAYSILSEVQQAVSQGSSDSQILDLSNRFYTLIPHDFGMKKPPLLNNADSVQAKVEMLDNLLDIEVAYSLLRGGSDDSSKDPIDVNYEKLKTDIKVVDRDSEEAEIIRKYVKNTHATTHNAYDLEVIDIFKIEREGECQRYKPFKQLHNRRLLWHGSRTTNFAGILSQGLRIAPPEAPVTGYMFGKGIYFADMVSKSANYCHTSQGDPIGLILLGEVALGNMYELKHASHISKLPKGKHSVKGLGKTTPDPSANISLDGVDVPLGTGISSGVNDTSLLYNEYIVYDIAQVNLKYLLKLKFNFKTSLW

COc1cc(OC)c2c(=O)[nH]c(-c3cccc(Cc4n[nH]c(=O)c5ccccc45)c3)nc2c1
0.175 µM: IC50 [8]
Non-Toxic: Activity [2] | Activity [5] | Activity [10] | Activity [13] | Activity [25] | Activity [26] | Activity [27] | Activity [28] | Activity [31]
active: Activity (MDA-MB-468 [4]) | Activity (MDA-MB-231 [6]) | Activity (MDA-MB-231 [7]) | Activity (MDA-MB-231 [9]) | Activity (MDA-MB-231 [11]) | Activity (MDA-MB-468 [12]) Dde | Activity (MDA-MB-231 [16]) | Activity (MDA-MB-468 [17]) Dde | Activity (MDA-MB-468 [18]) Dde | Activity (MDA-MB-231 [20]) | Activity (MDA-MB-231 [21]) | Activity [22] | inhibition (MDA-MB-468 [23]) Dde | inhibition (MDA-MB-468 [24]) | Activity (MDA-MB-231 [29]) | inhibition (MDA-MB-468 [33]) Dde
0.642 µg·h/mL: AUC(0-inf) [19]
0.238 µM: IC50 [32]
22.8%: Activity (MDA-MB-468 [1])
6.61 µM: IC50 (MDA-MB-231 [14])
6.18%: Activity (MDA-MB-468 [3])
63.2%: Activity (MDA-MB-468 [30])
4.94%: Activity (MDA-MB-468 [15])
